Test results taken from patent US11702418B2, “SOS1 inhibitors” (priority 2019, dated 2023).
pIC50, pKi: −log10 of the molar value.

Each compound was assayed against recombinant human SOS1 polypeptide (amino acids 560-1049) (Homo sapiens (Human), UniProt Q07889) (assay: biochemical). Conditions: HTRF displacement, Cy5 labelled tracer, Morrison equation for competitive binding; read-out: Ki, Inhibition of Labeled Tracer Binding to SOS1.
Assay type: binding

Chain of recombinant human SOS1 polypeptide (amino acids 560-1049) (Q07889 560-1049): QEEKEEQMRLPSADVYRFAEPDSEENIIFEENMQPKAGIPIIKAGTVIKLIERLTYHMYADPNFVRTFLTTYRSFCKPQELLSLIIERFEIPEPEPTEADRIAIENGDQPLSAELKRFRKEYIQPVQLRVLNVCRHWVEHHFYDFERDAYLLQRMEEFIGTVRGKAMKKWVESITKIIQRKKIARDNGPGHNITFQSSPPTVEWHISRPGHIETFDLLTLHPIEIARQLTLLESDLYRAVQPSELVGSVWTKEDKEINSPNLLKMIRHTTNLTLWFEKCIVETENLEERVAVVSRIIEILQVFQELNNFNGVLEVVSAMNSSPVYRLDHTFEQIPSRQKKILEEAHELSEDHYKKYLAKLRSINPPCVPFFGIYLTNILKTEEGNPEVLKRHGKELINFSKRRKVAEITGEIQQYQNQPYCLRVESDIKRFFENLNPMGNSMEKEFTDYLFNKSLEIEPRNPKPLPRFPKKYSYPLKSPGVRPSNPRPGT

Row | Compound | pKi
1 | Cc1c(C#N)cccc1[C@@H](C)Nc1nnc(C)c2cnc(N3CC[C@H](N(C)C)C3)cc12 [Example 12-69] | 9.03
2 | Cc1c(F)cccc1[C@@H](C)Nc1nnc(C)c2cnc(N3CC(C)(O)C3)cc12 [Example 12-81] | 7.54

What follows are compounds tested on pERK in MKN1 cells (assay: cells). Conditions: Homo sapiens, MKN-1.
Assay type: cell-based

Row | Compound | pIC50
3 | Cc1c([C@@H](C)Nc2nnc(C)c3ccc(C4CCNCC4)cc23)cccc1C(F)(F)F [Example 10-1, (R)-4-methyl-N-(1-(2-methyl-3-(trifluoromethyl)phenyl)ethyl)-7-(piperidin-4-yl)phthalazin-1-amine] | 6.74

Same assay, conditions: Homo sapiens, MKN-1, pERK inhibition, In-Cell Western; MKN1 or H358 cells (Table 24 does not say which); 0.5-1 hour incubation

Row | Compound | pIC50
4 | Cc1c([C@@H](C)Nc2nnc(CN)c3ccc(N4CCOCC4)cc23)cccc1C(F)(F)F [Example 14-2, (R)-4-(aminomethyl)-N-(1-(2-methyl-3-(trifluoromethyl)phenyl)ethyl)-7-morpholinophthalazin-1-amine] | 6.86

Same assay, conditions: Homo sapiens, MKN-1, pERK inhibition, In-Cell Western; MKN1 or H358 cells (Table 24 does not say which); 0.5-1 hour incubation; read-out: IC50

Row | Compound | pIC50
5 | Cc1c([C@@H](C)Nc2nncc3ccc(N4CC5CCN(C)CC5C4)cc23)cccc1C(F)(F)F (stereo partly drawn) [Example 1-31, N-((R)-1-(2-methyl-3-(trifluoromethyl)phenyl)ethyl)-7-(5-methyloctahydro-2H-pyrrolo[3,4-c]pyridin-2-yl)phthalazin-1-amine] | 7.08
6 | COc1nnc(N[C@H](C)c2cccc(C(F)(F)F)c2C)c2cc(N3CCNCC3)ccc12 [Example 9-1, (R)-4-methoxy-N-(1-(2-methyl-3-(trifluoromethyl)phenyl)ethyl)-7-(piperazin-1-yl)phthalazin-1-amine] | < 5.00
7 | Cc1c([C@@H](C)Nc2nncc3ccc(N4CCCCC(N(C)C)C4)cc23)cccc1C(F)(F)F (stereo partly drawn) [Example 1-50, 7-(3-(dimethylamino)azepan-1-yl)-N-((R)-1-(2-methyl-3-(trifluoromethyl)phenyl)ethyl)phthalazin-1-amine] | 6.34
8 | Cc1nnc(N[C@H](C)c2ccc(Cl)cc2Cl)c2cc(N3CCOCC3)ccc12 [Example 10-20, (R)-N-(1-(2,4-dichlorophenyl)ethyl)-4-methyl-7-morpholinophthalazin-1-amine] | 5.78
9 | Cc1c([C@@H](C)Nc2nnc(C)c3ccc(-n4ncc5c4CNC5)cc23)cccc1C(F)(F)F [Example 10-15, (R)-7-(5,6-dihydropyrrolo[3,4-c]pyrazol-1(4H)-yl)-4-methyl-N-(1-(2-methyl-3-(trifluoromethyl)phenyl)ethyl)phthalazin-1-amine] | 6.07
10 | COCCN1CCC(Oc2ccc3cnnc(N[C@H](C)c4cccc(C(F)(F)F)c4C)c3c2)CC1 [Example 2-9, (R)-7-((1-(2-methoxyethyl)piperidin-4-yl)oxy)-N-(1-(2-methyl-3-(trifluoromethyl)phenyl)ethyl)phthalazin-1-amine] | 6.76
11 | Cc1c([C@@H](C)Nc2nncc3ccc(N4CC(C(=O)N(C)C)C4)cc23)cccc1C(F)(F)F [Example 1-24, (R)-N,N-dimethyl-1-(4-((1-(2-methyl-3-(trifluoromethyl)phenyl)ethyl)amino)phthalazin-6-yl)azetidine-3-carboxamide] | 7.60
12 | Cc1c([C@@H](C)Nc2nnc(C)c3cnc(N4C[C@@H](C)O[C@H](C)C4)cc23)cccc1C(F)(F)F [Example 12-5] | 6.07
13 | Cc1c([C@@H](C)Nc2nncc3ccc(N4CCOC5(CCOC5)C4)cc23)cccc1C(F)(F)F (stereo partly drawn) [Example 1-41, N-((R)-1-(2-methyl-3-(trifluoromethyl)phenyl)ethyl)-7-(2,6-dioxa-9-azaspiro[4.5]decan-9-yl)phthalazin-1-amine] | 6.71
14 | Cc1c([C@@H](C)Nc2nncc3ccc(OC4CCN(C)C4)cc23)cccc1C(F)(F)F (stereo partly drawn) [Example 2-7, N-((R)-1-(2-methyl-3-(trifluoromethyl)phenyl)ethyl)-7-((1-methylpyrrolidin-3-yl)oxy)phthalazin-1-amine] | 6.85
15 | Cc1c([C@@H](C)Nc2nnc(C)c3ccc(-n4cccn4)cc23)cccc1C(F)(F)F [Example 10-17, (R)-4-methyl-N-(1-(2-methyl-3-(trifluoromethyl)phenyl)ethyl)-7-(1H-pyrazol-1-yl)phthalazin-1-amine] | 5.58
16 | Cc1c([C@@H](C)Nc2nncc3ccc(N4CCCC(N(C)C)C4)cc23)cccc1C(F)(F)F (stereo partly drawn) [Example 1-36, 7-(3-(dimethylamino)piperidin-1-yl)-N-((R)-1-(2-methyl-3-(trifluoromethyl)phenyl)ethyl)phthalazin-1-amine] | 6.90
17 | Cc1c([C@@H](C)Nc2nncc3ccc(N4CCN(C)C(=O)C4)cc23)cccc1C(F)(F)F [Example 1-30, (R)-1-methyl-4-(4-((1-(2-methyl-3-(trifluoromethyl)phenyl)ethyl)amino)phthalazin-6-yl)piperazin-2-one] | 7.10
18 | Cc1c([C@@H](C)Nc2nncc3ccc(N4CCn5c(nc6ccccc65)C4)cc23)cccc1C(F)(F)F [Example 1-46, (R)-7-(3,4-dihydrobenzo[4,5]imidazo[1,2-a]pyrazin-2(1H)-yl)-N-(1-(2-methyl-3-(trifluoromethyl)phenyl)ethyl)phthalazin-1-amine] | 6.47
19 | Cc1c([C@@H](C)Nc2nncc3ccc(N4CCC5(CCCN(C)C5)C4)cc23)cccc1C(F)(F)F (stereo partly drawn) [Example 1-34, N-((R)-1-(2-methyl-3-(trifluoromethyl)phenyl)ethyl)-7-(7-methyl-2,7-diazaspiro[4.5]decan-2-yl)phthalazin-1-amine] | 6.92
20 | Cc1c([C@@H](C)Nc2nncc3ccc(N4CCCC(N5CCC5)C4)cc23)cccc1C(F)(F)F (stereo partly drawn) [Example 1-49, 7-(3-(azetidin-1-yl)piperidin-1-yl)-N-((R)-1-(2-methyl-3-(trifluoromethyl)phenyl)ethyl)phthalazin-1-amine] | 6.37
21 | Cc1c([C@@H](C)Nc2nncc3ccc(N4CCC5(CCN(C)C5)C4)cc23)cccc1C(F)(F)F (stereo partly drawn) [Example 1-39, N-((R)-1-(2-methyl-3-(trifluoromethyl)phenyl)ethyl)-7-(7-methyl-2,7-diazaspiro[4.4]nonan-2-yl)phthalazin-1-amine] | 6.77
22 | Cc1c([C@@H](C)Nc2nncc3ccc(N4CCCN(C)CC4)cc23)cccc1C(F)(F)F [Example 1-29, (R)-7-(4-methyl-1,4-diazepan-1-yl)-N-(1-(2-methyl-3-(trifluoromethyl)phenyl)ethyl)phthalazin-1-amine] | 7.15
23 | Cc1c([C@@H](C)Nc2nncc3ccc(N4CCOCC4C)cc23)cccc1C(F)(F)F (stereo partly drawn) [Example 1-27, N-((R)-1-(2-methyl-3-(trifluoromethyl)phenyl)ethyl)-7-(3-methylmorpholino)phthalazin-1-amine] | 7.21
24 | Cc1nnc(N[C@H](C)c2ccc(Cl)cc2Cl)c2cc(N3CCNCC3)ccc12 [Example 10-21, (R)-N-(1-(2,4-dichlorophenyl)ethyl)-4-methyl-7-(piperazin-1-yl)phthalazin-1-amine] | 6.35
25 | Cc1cc(C)n(-c2ccc3c(C)nnc(N[C@H](C)c4cccc(C(F)(F)F)c4C)c3c2)n1 [Example 10-14, (R)-7-(3,5-dimethyl-1H-pyrazol-1-yl)-4-methyl-N-(1-(2-methyl-3-(trifluoromethyl)phenyl)ethyl)phthalazin-1-amine] | 5.94

Same assay, conditions: read-out: IC50

Row | Compound | pIC50
26 | 4-methyl-N—((R)-1-(5-(2-((methylamino)methyl(phenyl)thiophen-2-yl)ethyl)-7-(((S)-tetrahydrofuran-3-yl)oxy)phthalazin-1-amine [Example 7-1] | 7.10
